Data on 89 compounds can be found in a melting point compilation (Tetko et al.; mined from patent text by program, amines drawn as free bases though some values may be those of a salt).

In general, melting point refers to the temperature of the solid-liquid transition. As to `CN(C)CC1Cc2ccc(NC(=O)c3ccc(-c4ccc(Cl)cc4)cc3)cc2C1` (centres undefined), the melting point was 192 to 194 °C.

With `CC(C)(C)c1cc(/C=C/c2n[nH]c(=S)s2)cc(C(C)(C)C)c1O`, the melting point is 248 to 249 °C.

Take `CCOC(=O)c1[nH]c2cc(Cl)cc(Cl)c2c1C(=O)OCC`: the melting point lay in the range of 167 to 170 °C.

In turn, `CCOC(=O)CCCCSc1nc2ccccc2[nH]1` yielded a melting point of 88 to 90 °C.

As for `Cc1cc(NC(=O)C(=O)N2C(C)CCCC2C)cc(C)c1S(=O)(=O)C[N+](=O)[O-]` (centres undefined), the melting point was 192 to 193 °C.

In the case of `COc1ccc(-c2ncc(C(F)(F)F)cc2Cl)cc1`, the melting point was 71 to 72 °C.

Turning to `C[Si](C)(C)c1[nH]c2ccccc2c1C1CC1`, the melting point fell in the range of 78 to 81 °C.

The compound `Cc1cncc(C)c1-c1c(C)cc(I)cc1C` returned a melting point of 242 to 243 °C.

In turn, `O=C(O)c1cc(OCc2ccccc2)nc(OCc2ccccc2)c1` returned a melting point of 145 to 147 °C.

`CCCc1ccc(-n2cnc(-c3ccc(C#N)cc3)c2)cc1` came in with a melting point of 133 °C.

The compound `Cc1ccccc1-c1c(C(=O)N(C)Cc2cc(C(F)(F)F)cc(C(F)(F)F)c2)n(C)c(=O)c2cccnc12` displayed a melting point of 183 to 185 °C.

`COP(=O)(Cc1cc(C(C)(C)C)c(O)c(C(C)(C)C)c1)C1CCCCC1` (centres undefined) showed a melting point of 149 to 150 °C.

For `CNC1N=CN(c2c(C)cccc2Cl)C(=O)N1` (centres undefined), the melting point was in the range of 254 to 256 °C.

For `O=C(O)CCCCCCCn1c(-c2cc(I)c(O)c(I)c2)nc(-c2ccccc2)c1-c1ccccc1`, the melting point turned out to be 186 °C.

On to `C#CC(C)(O)C1CCC2C3CC=C4CC(F)CCC4(C)C3CCC21C` (centres undefined), for which the melting point lay in the range of 213 to 214 °C.

As for `CCOC(=O)/C(=N/OCc1ccccc1)c1ccc(OCCOc2ccc3ccccc3c2)s1`, the melting point was 111 to 112 °C.

With `O=C(COc1ccc(CCNS(=O)(=O)c2ccccc2)cc1)Nc1ccccc1`, the melting point came to 123 °C.

The compound `Cc1oc(-c2ccccc2)nc1COc1cccc(CON=C(CCC(=O)O)c2ccccc2)c1` showed a melting point of 108 to 109 °C.

The compound `COC(=O)C(CN(c1ccccc1)c1ccccn1)N(C(=O)OC(C)(C)C)C(=O)OC(C)(C)C` (centres undefined) returned a melting point of 103 °C.

`COc1cc(Cl)cc(OC(=O)c2cc3cc(CCl)ccc3oc2=O)c1`: the melting point fell in the range of 184 to 185 °C.

`CN1Cc2c(CO)ncn2-c2cccc(Cl)c2C1=O` displayed a melting point of 207 to 208 °C.

The compound `CS(=O)(=O)c1ccc(-c2cc(CO)cn2-c2ccc(F)cc2)cc1` returned a melting point of 88 to 90 °C.

The compound `Oc1ccc2cc(Oc3c(Cl)cc(C(F)(F)F)cc3Cl)ccc2c1` returned a melting point of 158 °C.

The compound `CCN1C(=O)c2ccc(C)cc2Oc2ncccc21` had a melting point of 88 to 90 °C.

In turn, `CCCCc1cc2c3n(ccc-2n1)CC(C)=N3` registered a melting point of 162 °C.

The compound `Cc1nc2c(OCc3c(Cl)ccc(N(C)C(=O)CNC(N)=O)c3Cl)cccn2c1Br` returned a melting point of 147 to 149 °C.

`CCOc1ccc2c(c1)n(C1CCCCC1)c(=O)n2Cc1ccc(-n2cccc2)cc1OC` came in with a melting point of 115 °C.

Compound `CC1(C)CC(=O)c2c(nc(C3CCCC3)c(C(=O)c3ccc(C(F)(F)F)cc3)c2-c2ccsc2)C1` gave a melting point of 236 to 238 °C.

In the case of `FC(F)(F)c1ccc(-n2nnnc2Nc2ccc(C(F)(F)F)cc2Cl)cc1`, the melting point amounted to 116 °C.

As for `CCCn1nc2oc(=O)cc(C)c2c1C`, the melting point is 108 to 110 °C.

`ClC(=NNc1ccccc1)c1ccc(Cl)cc1Cl` gave a melting point of 88.5 to 89.5 °C.

In turn, `COc1ccc(NC(=O)CCc2ccc(-c3c(C)sc4nc(=NS(=O)(=O)c5ccc(C)cc5)sn34)cc2)cc1OC` had a melting point of 203 to 204 °C.

In the case of `CSc1nn2c(O)cc(C)nc2c1S(=O)(=O)c1ccc(C(C)C)cc1`, the melting point lay within 183 to 184 °C.

Compound `COc1ccc(Cl)cc1N1CCN(CCNc2nccc(C(=O)N3CCC(Nc4nc(=O)cc[nH]4)CC3)n2)CC1` had a melting point of 114 to 117 °C.

For the compound `Cc1nc(-c2ccc(F)cc2)c(COc2ccc(-c3nc4cc(C(=O)O)ccc4n3C3CCCCC3)cc2)s1`, the melting point lay within 196 to 198 °C.

Regarding `CCC(Cc1ccc(OC)c(S(N)(=O)=O)c1)NC(=O)C(F)(F)F` (centres undefined), the melting point lay in the range of 189 to 192 °C.

Compound `Cc1nc(S(=O)(=O)CC(N)=O)nc(C)c1Br` yielded a melting point of 175 to 177 °C.

For the compound `CN1C(=O)C(C(=O)Nc2ccc(F)cc2)S(=O)(=O)c2ccccc21` (centres undefined), the melting point lay within 189 to 192 °C.

For the compound `CC(C)C(N)=C(C#N)C#N`, the melting point lay in the range of 163 to 164 °C.

In the case of `CC(C)C(CS(=O)(=O)c1ccc(-c2cccc(CNC(=O)c3nc4ccccc4c(=O)[nH]3)c2)cc1)N(O)C(N)=O` (centres undefined), the melting point was 193 to 195 °C.

Turning to `CCOC(=O)c1csc(NC(=O)c2cc(OC)c(OC)cc2O)n1`, the melting point fell in the range of 218 to 220 °C.

In turn, `CCCC(=O)c1cccc(NC(=O)C=C(C)OC)c1` returned a melting point of 81 °C.

`CCOc1ccc(NS(=O)(=O)c2cccc3c(N(C)C)cccc23)nn1` returned a melting point of 194 to 198 °C.

The compound `CSc1ccccc1C1C(=O)c2ccccc2C1=O` gave a melting point of 191 to 193 °C.

`O=C1C(=C2CC=Cc3ccccc32)CCCC1=C1CC=Cc2ccccc21`: the melting point fell in the range of 212 to 213 °C.

The compound `COCCCNCC(=O)Nc1ccc(C(=O)OC)cc1` gave a melting point of 49 to 50 °C.

The compound `CN(C)Cc1ccc(CSCCNC(=O)NCCCCN(C)CCN(Cc2ccc(F)cc2)c2ccccn2)o1` gave a melting point of 74 °C.

Turning to `C#Cc1cccc(NC(=O)c2cc(-c3ccc(F)cc3F)ccc2O)c1`, the melting point is 215 to 216 °C.

`CCC[C@H]1CC[C@H](c2ccc(F)c(F)c2)CC1` registered a melting point of -15.4 °C.

`CCOc1ccc(-c2nc(-c3cccc(C#N)n3)cs2)cc1OCC` displayed a melting point of 134 to 136 °C.

Regarding `CCOC(=O)c1csc(S)n1`, the melting point lay in the range of 120 to 121 °C.

For the compound `CS(=O)(=O)Nc1nc2nc(NC3CCOCC3)ncc2cc1Oc1ccc(F)cc1F`, the melting point was in the range of 199 to 204 °C.

Compound `Cc1ccc2c(Sc3cc(Cl)cc(Cl)c3)c(CC(N)=O)[nH]c2c1` displayed a melting point of 197 °C.

`COc1ccc2[nH]c(S(=O)Cc3nccc(N(C)C)c3F)nc2c1` (centres undefined) came in with a melting point of 145 to 147 °C.

`CC(C)Nc1cccnc1N1CCN(C(=O)c2ccc(C(=O)N(C(C)C)C(C)C)cc2)CC1` came in with a melting point of 152 to 153 °C.

The compound `COc1cc2ncnc(N3c4ccccc4CC3C)c2cc1OC` (centres undefined) registered a melting point of 154 to 156 °C.

In turn, `Cn1nc(NC(=O)c2ccccc2)c2c(=O)n3c(nc21)SCC3` registered a melting point of 271 to 272 °C.

`Nc1ccccc1SC(F)(F)F` yielded a melting point of 30 to 31 °C.

The compound `Cc1cnc2c(c1)CCCC2S(=O)(=O)c1ccccc1` (centres undefined) had a melting point of 84 to 86 °C.

With `O=C(NC1CCC1)c1ccc(F)c2c1CC(N(CCCc1c[nH]c3ccc(F)cc13)C1CCC1)CO2` (centres undefined), the melting point amounted to 135 °C.

Consider `CCCCCCCCOC(=O)c1nc(Cl)c(Cl)nc1N`, for which the melting point stood at 85 °C.

Compound `Cc1ccc(S(C)(=O)=O)c(C)c1Cl` registered a melting point of 116 to 119 °C.

On to `CSc1nc(=O)n(-c2ccc(Cl)cc2)c(=O)[nH]1`, for which the melting point was in the range of 292 to 295 °C.

Regarding `COc1ccc(-n2cnnc2C(C)O)cc1` (centres undefined), the melting point stood at 170 °C.

Regarding `CN1CCN2CCNC2(c2ccccc2)c2cc(Cl)ccc21` (centres undefined), the melting point fell in the range of 100 to 102 °C.

The compound `Cc1ccc(C(=O)Nc2c[nH]nc2C(=O)NCC(F)(F)F)cn1` showed a melting point of 218 to 219 °C.

In turn, `O=C(O)CN1C(=O)C(=Cc2ccc(Cl)cc2Cl)SC1=S` registered a melting point above 237 °C.

The compound `Cc1c(N2CCN(C(C)C)CC2)nn2c(-c3ccnnc3)c(-c3ccc(F)cc3)nc2c1C` gave a melting point of 222 to 224 °C.

Compound `COc1cc2c(cc1CCC#N)C(=O)CC(C)(C)O2` came in with a melting point of 105 to 107 °C.

Consider `Fc1ccccc1C1=NCc2c[nH]cc2-c2ccc(Cl)cc21`, for which the melting point was in the range of 197 to 199 °C.

Compound `O=C1CCN=C(c2ccccc2F)c2cc(Cl)ccc21` had a melting point of 107 to 109 °C.

Take `O=C(O)c1ccc(COc2ccc3cc(-c4ccc(-c5ccccc5)n4-c4ccccc4)ccc3c2)cc1`: the melting point lay within 309 to 310 °C.

Regarding `C=CCOc1cccc(-n2cnc(C(=O)OCC)c2)c1`, the melting point was 53 to 55 °C.

`NCCCc1cn(S(=O)(=O)c2c(Cl)nc3sccn23)c2ccc(F)cc12` gave a melting point of 139 to 141 °C.

The compound `O=C(CCCCC1CCSS1)Nc1nc(=S)ss1` (centres undefined) registered a melting point of 158 to 161 °C.

`NC(=O)CC[C@H](NC(=O)CCc1ccc(OCc2ccccc2)cc1OCc1ccccc1)C(=O)N1CCN(Cc2ccccc2)CC1`: the melting point lay within 145 to 147 °C.

Regarding `CCCC(=O)Nc1nc(=O)n(C2OC(C)C(O)C2O)cc1F` (centres undefined), the melting point fell in the range of 156 to 157 °C.

In turn, `CCCN(CCC)C(=O)COc1nc(-c2ccccc2)nc(C)c1Br` displayed a melting point of 107 to 108 °C.

In turn, `CCN1C(=O)CCCc2cc(Nc3ncc(Cl)c(Nc4ccccc4OC)n3)c(OC)cc21` showed a melting point of 78 to 80 °C.

Compound `COc1ccc(S(=O)(=O)N2C(=O)C(NC(C)=O)(c3ccccc3)c3cc(Cl)ccc32)c(OC)c1` (centres undefined) came in with a melting point of 253 °C.

The compound `CC(=O)OC1COC(N=[N+]=[N-])C(OC(C)=O)C1OC(C)=O` (centres undefined) came in with a melting point of 76 °C.

In the case of `CN1C(=O)C2(COc3cc4c(cc32)OCCO4)c2c(C(=O)N3CCCC3)cccc21` (centres undefined), the melting point lay within 242 to 244 °C.

Take `CCOC(=O)C(=CNC1CC1)C(=O)c1ccc(F)c(Cl)c1F`: the melting point is 101 to 104 °C.

`CCCc1nc2c(N)nc3cc(-c4ccccc4)ccc3c2n1CCCC(C)N(OC)C(=O)NC(C)C` (centres undefined) gave a melting point of 101 to 103 °C.

`O=C(c1ccccc1)c1cccnc1Cl` had a melting point of 35 to 37 °C.

In turn, `CC(C)c1nn(-c2ccc(Cl)cn2)cc1CO` displayed a melting point of 135 to 136 °C.

`Nc1cc(I)ccc1Nc1cccc(-c2cncnc2)c1` showed a melting point of 166 to 169 °C.

In turn, `CCOc1ccc(C=CCCCCC(=O)O)cc1` registered a melting point of 62 to 63 °C.

As to `O=C(NO)c1ccc(CNC(=O)c2[nH]c(-c3ccccc3)cc2-c2ccc(C(F)(F)F)cc2)cc1`, the melting point lay within 137 to 138 °C.
